Measured values: ChEMBL document CHEMBL5154748, “Discovery of novel 3-butyl-6-benzyloxyphthalide Mannich base derivatives as multifunctional agents against Alzheimer's disease” (Bioorg Med Chem, 2022)
Active and inactive are the calls of the source. No cut-off for these calls is given here.

Key:
[1] = target: T1, Amine oxidase [flavin-containing] A (Homo sapiens, UniProt P21397); assay: Inhibition of human MAO-A at 10 uM by fluorescence assay
T1 sequence (P21397 whole entry): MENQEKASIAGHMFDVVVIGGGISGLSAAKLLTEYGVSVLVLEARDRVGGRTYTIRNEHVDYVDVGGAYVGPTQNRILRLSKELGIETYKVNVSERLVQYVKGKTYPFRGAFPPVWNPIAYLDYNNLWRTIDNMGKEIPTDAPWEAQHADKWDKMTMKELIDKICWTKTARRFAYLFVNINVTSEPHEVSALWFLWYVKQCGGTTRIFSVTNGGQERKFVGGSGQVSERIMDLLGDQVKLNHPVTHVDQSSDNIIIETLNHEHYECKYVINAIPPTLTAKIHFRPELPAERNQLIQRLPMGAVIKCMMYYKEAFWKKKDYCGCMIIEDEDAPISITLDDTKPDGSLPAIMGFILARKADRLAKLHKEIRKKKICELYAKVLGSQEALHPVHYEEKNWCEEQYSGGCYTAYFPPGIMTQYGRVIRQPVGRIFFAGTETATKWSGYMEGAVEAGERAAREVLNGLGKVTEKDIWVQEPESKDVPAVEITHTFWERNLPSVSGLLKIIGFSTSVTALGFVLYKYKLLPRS

Acetylcholinesterase [2] = target: Acetylcholinesterase (Electrophorus electricus, UniProt O42275); assay: Inhibition of Electric eel AChE by Ellman's method
Acetylcholinesterase (Electrophorus electricus, UniProt O42275), sequence (O42275 whole entry): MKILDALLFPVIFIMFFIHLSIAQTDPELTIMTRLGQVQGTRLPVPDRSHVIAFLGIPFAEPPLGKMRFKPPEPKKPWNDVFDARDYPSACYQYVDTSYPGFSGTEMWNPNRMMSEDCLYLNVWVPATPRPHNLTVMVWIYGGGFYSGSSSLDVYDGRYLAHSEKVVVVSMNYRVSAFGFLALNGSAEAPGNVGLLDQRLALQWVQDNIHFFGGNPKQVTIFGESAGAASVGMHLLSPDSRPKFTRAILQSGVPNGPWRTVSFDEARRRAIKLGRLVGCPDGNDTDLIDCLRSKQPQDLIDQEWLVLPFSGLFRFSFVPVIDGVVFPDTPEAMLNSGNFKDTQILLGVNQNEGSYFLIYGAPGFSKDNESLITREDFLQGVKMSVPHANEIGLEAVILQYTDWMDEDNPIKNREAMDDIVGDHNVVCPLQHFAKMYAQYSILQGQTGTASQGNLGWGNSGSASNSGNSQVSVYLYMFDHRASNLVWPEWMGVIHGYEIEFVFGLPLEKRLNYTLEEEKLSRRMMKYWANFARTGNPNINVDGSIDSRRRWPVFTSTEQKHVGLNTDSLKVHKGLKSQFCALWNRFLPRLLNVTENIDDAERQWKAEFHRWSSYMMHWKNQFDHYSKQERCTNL

Acetylcholinesterase [3] = target: T2, Acetylcholinesterase (Homo sapiens, UniProt P22303); assay: Inhibition of Human AChE by Ellman's method
T2 sequence (P22303 whole entry): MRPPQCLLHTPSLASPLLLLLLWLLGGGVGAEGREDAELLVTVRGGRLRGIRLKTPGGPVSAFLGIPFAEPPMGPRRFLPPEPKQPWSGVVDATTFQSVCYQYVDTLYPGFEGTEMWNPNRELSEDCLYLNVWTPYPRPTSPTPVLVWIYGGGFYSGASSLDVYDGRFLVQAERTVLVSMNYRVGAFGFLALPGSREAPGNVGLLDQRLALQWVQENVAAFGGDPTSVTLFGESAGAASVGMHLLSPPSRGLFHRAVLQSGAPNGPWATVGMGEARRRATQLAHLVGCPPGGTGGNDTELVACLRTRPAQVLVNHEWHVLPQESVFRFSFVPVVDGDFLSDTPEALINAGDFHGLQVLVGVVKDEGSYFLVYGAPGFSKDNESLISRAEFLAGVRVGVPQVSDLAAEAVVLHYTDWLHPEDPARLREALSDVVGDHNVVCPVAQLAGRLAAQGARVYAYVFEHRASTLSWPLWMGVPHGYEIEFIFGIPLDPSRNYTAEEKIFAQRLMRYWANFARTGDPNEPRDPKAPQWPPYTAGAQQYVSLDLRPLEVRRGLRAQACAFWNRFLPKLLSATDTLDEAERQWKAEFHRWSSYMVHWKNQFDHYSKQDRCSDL

[4] = Antioxidant activity assessed as trolox equivalent of ORAC radical scavenging activity by ORAC-FL assay; type: functional
[5] = target: Butyrylcholinesterase (Rattus norvegicus) (UniProt Q9JKC1); assay: Inhibition of Rat BuChE at 10 uM by Ellman's method
Butyrylcholinesterase (Rattus norvegicus), sequence (Q9JKC1 as listed by the source): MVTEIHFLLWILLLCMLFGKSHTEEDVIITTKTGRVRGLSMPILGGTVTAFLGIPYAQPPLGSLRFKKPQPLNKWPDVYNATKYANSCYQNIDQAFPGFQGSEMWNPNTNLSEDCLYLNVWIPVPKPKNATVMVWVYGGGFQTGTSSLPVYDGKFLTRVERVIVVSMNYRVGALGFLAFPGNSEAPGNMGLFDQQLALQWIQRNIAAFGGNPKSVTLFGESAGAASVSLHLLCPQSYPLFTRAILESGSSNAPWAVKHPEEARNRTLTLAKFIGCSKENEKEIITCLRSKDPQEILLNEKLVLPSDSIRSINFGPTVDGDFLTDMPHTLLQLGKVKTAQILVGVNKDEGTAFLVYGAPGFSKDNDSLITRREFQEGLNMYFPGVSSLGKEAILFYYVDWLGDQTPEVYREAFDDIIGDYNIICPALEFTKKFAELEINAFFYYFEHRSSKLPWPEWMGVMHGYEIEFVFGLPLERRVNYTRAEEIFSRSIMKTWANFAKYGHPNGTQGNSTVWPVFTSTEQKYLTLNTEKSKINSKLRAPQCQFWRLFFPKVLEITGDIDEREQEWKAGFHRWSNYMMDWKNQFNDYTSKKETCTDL

[6] = target: T3, Amine oxidase [flavin-containing] B (Homo sapiens, UniProt P27338); assay: Inhibition of human MAO-B by fluorescence assay
T3 sequence (P27338 whole entry): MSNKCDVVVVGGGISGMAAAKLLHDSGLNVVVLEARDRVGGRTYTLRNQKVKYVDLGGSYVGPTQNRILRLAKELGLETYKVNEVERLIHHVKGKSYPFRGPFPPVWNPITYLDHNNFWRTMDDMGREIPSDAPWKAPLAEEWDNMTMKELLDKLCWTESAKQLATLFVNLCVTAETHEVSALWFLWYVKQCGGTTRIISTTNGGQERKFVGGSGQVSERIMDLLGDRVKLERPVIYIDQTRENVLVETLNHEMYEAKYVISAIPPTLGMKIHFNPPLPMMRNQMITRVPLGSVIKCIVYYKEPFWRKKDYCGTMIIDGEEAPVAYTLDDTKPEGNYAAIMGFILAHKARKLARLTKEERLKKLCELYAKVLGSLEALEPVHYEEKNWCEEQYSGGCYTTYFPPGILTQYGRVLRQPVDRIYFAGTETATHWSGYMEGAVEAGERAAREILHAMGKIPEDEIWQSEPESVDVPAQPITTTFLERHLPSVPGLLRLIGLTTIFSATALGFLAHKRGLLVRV

[7] = target: T3, Amine oxidase [flavin-containing] B; assay: Inhibition of human MAO-B at 10 uM by fluorescence assay
[8] = target: Acetylcholinesterase (Electrophorus electricus) (UniProt O42275); assay: Inhibition of Electric eel AChE at 10 uM by Ellman's method
Acetylcholinesterase (Electrophorus electricus), sequence (O42275 24-633 limits assumed): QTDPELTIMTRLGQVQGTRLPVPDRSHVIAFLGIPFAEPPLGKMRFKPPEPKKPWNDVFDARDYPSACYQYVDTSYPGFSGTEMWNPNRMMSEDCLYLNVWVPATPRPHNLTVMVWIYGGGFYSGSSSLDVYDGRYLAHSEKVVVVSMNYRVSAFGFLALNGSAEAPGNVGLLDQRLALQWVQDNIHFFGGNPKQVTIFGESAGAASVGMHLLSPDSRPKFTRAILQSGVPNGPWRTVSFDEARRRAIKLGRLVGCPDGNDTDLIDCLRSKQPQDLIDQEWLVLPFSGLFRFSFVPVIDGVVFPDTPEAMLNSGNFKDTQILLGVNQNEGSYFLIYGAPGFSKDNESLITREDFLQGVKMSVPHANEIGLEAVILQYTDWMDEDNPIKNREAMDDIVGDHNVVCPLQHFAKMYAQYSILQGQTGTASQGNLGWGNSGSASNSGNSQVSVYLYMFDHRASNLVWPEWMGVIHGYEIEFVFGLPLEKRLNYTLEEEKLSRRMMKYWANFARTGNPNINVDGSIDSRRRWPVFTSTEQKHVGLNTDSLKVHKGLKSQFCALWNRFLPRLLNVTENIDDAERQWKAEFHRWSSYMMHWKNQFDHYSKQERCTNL

BV-2 [9] = assay: Antineuroinflammatory activity in mouse BV-2 cells assessed as inhibition of LPS-induced NO production at 0.5 uM after 24 hrs by Griess reagent based assay; type: functional
BV-2 [10] = assay: Cytotoxicity against mouse BV-2 cells at 10 uM by MTT method; type: toxicity, cell-based; conditions: bv-2, 10 µM
[11] = Inhibition of reactive oxygen species production using Cu-ascorbate redox system by coumarin-3-carboxylic acid dye based fluorescence analysis; type: functional
PC-12 [12] = assay: Cytotoxicity against rat PC12 cells assessed as decrease in cell viability at 100 uM by MTT assay; type: toxicity, cell-based; conditions: pc-12, 100 µM
BV-2 [13] = assay: Antineuroinflammatory activity in mouse BV-2 cells assessed as inhibition of LPS-induced TNF-alpha production at 10 uM after 24 hrs by ELISA; type: functional
BV-2 [14] = assay: Inhibition of LPS-induced ROS production in mouse BV-2 cells assessed as complete reversal at 10 uM by DCFH-DA staining based fluorescence analysis; type: functional, cell-based
PC-12 [15] = assay: Neuroprotective against H2O2-induced rat PC-12 cell injury assessed as cell viability at 4 uM by MTT assay (reference value: 48.0%); type: functional; conditions: read-out: Activity
BV-2 [16] = assay: Antineuroinflammatory activity in mouse BV-2 cells assessed as inhibition of LPS-induced TNF-alpha production at 0.5 uM after 24 hrs by ELISA; type: functional
BV-2 [17] = assay: Antineuroinflammatory activity in mouse BV-2 cells assessed as inhibition of LPS-induced NO production at 2.5 uM after 24 hrs by Griess reagent based assay; type: functional
PC-12 [18] = assay: Neuroprotective against H2O2-induced rat PC-12 cell injury assessed as cell viability at 10 uM by MTT assay (reference value: 48.0%); type: functional; conditions: read-out: Activity
BV-2 [19] = assay: Inhibition of LPS-induced ROS production in mouse BV-2 cells at 2.5 uM by DCFH-DA staining based fluorescence analysis; type: functional, cell-based
BV-2 [20] = assay: Antineuroinflammatory activity in mouse BV-2 cells assessed as inhibition of LPS-induced NO production at 10 uM after 24 hrs by Griess reagent based assay; type: functional
BV-2 [21] = assay: Antineuroinflammatory activity in mouse BV-2 cells assessed as inhibition of LPS-induced TNF-alpha production at 2.5 uM after 24 hrs by ELISA; type: functional
BV-2 [22] = assay: Cytotoxicity against mouse BV-2 cells at 10 uM in presence of LPS by MTT method; type: toxicity, cell-based; conditions: bv-2, 10 µM
Acetylcholinesterase [23] = target: T2, Acetylcholinesterase; assay: Mixed type inhibition of AChE (unknown origin) by Lineweaver-Burk plot analysis
PC-12 [24] = assay: Neuroprotective against H2O2-induced rat PC-12 cell injury assessed as cell viability at 25 uM by MTT assay (reference value: 48.0%); type: functional; conditions: read-out: Activity
[25] = Metal chelating activity assessed as Cu2+-compound complex formation at 37.5 uM by UV-visible spectrophotometry
BV-2 [26] = assay: Inhibition of LPS-induced ROS production in mouse BV-2 cells at 10 uM by DCFH-DA staining based fluorescence analysis; type: functional, cell-based

Compound | inhibition at 10 µM [1] | IC50 (Acetylcholinesterase [2]) | IC50 (Acetylcholinesterase [3]) | Activity [4] | inhibition [5] | IC50 [6] | inhibition at 10 µM [7] | other results
CCCCC1OC(=O)c2cc(OCc3ccc(CN(CC)CC)c(O)c3)ccc21 (configuration not stated) | 26.3% | 0.64 µM | 0.35 µM | 1.53 | 8.1% | 6.81 µM | – | –
CCCCC1OC(=O)c2cc(OCc3ccc(CN(CC)Cc4ccccc4)c(O)c3)ccc21 (configuration not stated) | 14.8% | 20.5 µM | – | 1.15 | 5.6% | 1.96 µM | – | –
CCCCC1OC(=O)c2cc(OCc3ccc(CN4CCCC4)c(O)c3)ccc21 (configuration not stated) | 23.7% | 0.89 µM | 3.92 µM | 1.73 | 10% | 0.94 µM | – | –
CCCCC1OC(=O)c2cc(OCc3cccc(CN(CC)Cc4ccccc4)c3O)ccc21 (configuration not stated) | 5.4% | – | – | 1.86 | < 5% | – | 12.5% | inhibition [8]: 15.3%
CCCCC1OC(=O)c2cc(OCc3ccc(CN4CCOCC4)c(O)c3)ccc21 (configuration not stated) | 27.9% | 8.37 µM | 3.32 µM | 1.12 | < 5% | 1.42 µM | – | –
CCCCC1OC(=O)c2cc(OCc3cccc(CN4CCN(C)CC4)c3O)ccc21 (configuration not stated) | 12.5% | – | – | 2.33 | < 5% | – | 32.3% | inhibition [8]: 29.4%
CCCCC1OC(=O)c2cc(OCc3cccc(CN4CCCC4)c3O)ccc21 (configuration not stated) | 23.5% | 26.7 µM | – | 2.38 | 5.8% | – | 6.9% | –
CCCCC1OC(=O)c2cc(OCc3cccc(CN(CC)CC)c3O)ccc21 (configuration not stated) | 20.4% | 20.9 µM | – | 2.02 | < 5% | – | 5.2% | –
CCCCC1OC(=O)c2cc(OCc3ccc(CN4CCCCC4)c(O)c3)ccc21 (configuration not stated) | 18.1% | 0.087 µM | 0.041 µM | 1.86 | < 5% | 0.3 µM | – | inhibition at 0.5 µM (BV-2 [9]): 30.4%; Activity (BV-2 [10]): Non-Toxic; inhibition [11]: Active; Activity (PC-12 [12]): Toxic; inhibition at 10 µM (BV-2 [13]): 63.2%; inhibition (BV-2 [14]): Active; viability at 4 µM (PC-12 [15]): 56.3%; inhibition at 0.5 µM (BV-2 [16]): 32.7%; inhibition at 2.5 µM (BV-2 [17]): 43.5%; viability at 10 µM (PC-12 [18]): 71.1%; inhibition (BV-2 [19]): Active; inhibition at 10 µM (BV-2 [20]): 58.9%; inhibition at 2.5 µM (BV-2 [21]): 47.8%; Activity (BV-2 [22]): Non-Toxic; inhibition (Acetylcholinesterase [23]): Active; viability at 25 µM (PC-12 [24]): 80.2%; Activity [25]: Active
CCCCC1OC(=O)c2cc(OCc3ccc(CN4CCN(C)CC4)c(O)c3)ccc21 (configuration not stated) | 22.5% | 13.6 µM | 23.8 µM | 0.96 | < 5% | 2.39 µM | – | –
CCCCC1OC(=O)c2cc(OCc3cccc(CN4CCOCC4)c3O)ccc21 (configuration not stated) | 18.4% | 22.4 µM | – | 2.14 | 5.8% | 7.63 µM | – | –
CCCCC1OC(=O)c2cc(OCc3ccc(CN(C)C)c(O)c3)ccc21 (configuration not stated) | 29% | 5.39 µM | 8.78 µM | 1.62 | 11.8% | 6.9 µM | – | –
CCCCC1OC(=O)c2cc(OCc3cccc(O)c3)ccc21 (configuration not stated) | 29.3% | – | – | 0.88 | < 5% | 3.3 µM | – | inhibition [8]: 38.6%
CCCCC1OC(=O)c2cc(OCc3cccc(CN4CCN(CC)CC4)c3O)ccc21 (configuration not stated) | 12.8% | – | – | 1.67 | < 5% | – | 28.8% | inhibition [8]: 20.7%
CCCCC1OC(=O)c2cc(OCc3ccccc3O)ccc21 (configuration not stated) | 30.3% | – | – | 1.03 | < 5% | 2.07 µM | – | inhibition [8]: 20.3%
CCCCC1OC(=O)c2cc(OCc3ccc(CN4CCN(CC)CC4)c(O)c3)ccc21 (configuration not stated) | 17.5% | 14.8 µM | – | 0.77 | 6.5% | 2.53 µM | – | –
CCCCC1OC(=O)c2ccccc21 (racemic) [RAC-3-N-BUTYLPHTHALIDE] | – | – | – | 0.21 | – | – | – | inhibition at 0.5 µM (BV-2 [9]): 13.4%; inhibition at 10 µM (BV-2 [13]): 43.7%; inhibition at 0.5 µM (BV-2 [16]): 15.2%; inhibition (BV-2 [26]): Active; inhibition at 2.5 µM (BV-2 [17]): 22.9%; viability at 10 µM (PC-12 [18]): 64.1%; inhibition at 10 µM (BV-2 [20]): 37.2%; inhibition at 2.5 µM (BV-2 [21]): 27.6%
CCCCC1OC(=O)c2cc(OCc3cccc(CN4CCCCC4)c3O)ccc21 (configuration not stated) | 20% | 14.5 µM | – | 1.84 | 14.2% | – | 12.8% | –
